# Experimental data from ChEMBL document CHEMBL1201862, “PubChem BioAssay data set” (2004).
# The source made the active and inactive calls.
# Tests used:
# [1] = target: Voltage-dependent T-type calcium channel subunit alpha-1H (Homo sapiens, UniProt O95180); format: functional;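 also: channel activity triggered by adding a high calcium stimulation buffer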
# [2] = target: Prothrombin (Bos taurus, UniProt P00735); test: thrombin protease inhibitors – biochemical, fluorescence polarization, uHTS hits, dose response (AID 602369); format: functional
# [3] = target: T1, Aminopeptidase N (Plasmodium falciparum FcB1/Columbia, UniProt O96935); test: malaria alanyl aminopeptidase activity blockers – biochemical, fluorogenic H-Leu-NHMec substrate, 1536-well (AID 1445); set-up: species or system Plasmodium falciparum 3D7, 3D7
# T1 sequence (O96935 whole entry): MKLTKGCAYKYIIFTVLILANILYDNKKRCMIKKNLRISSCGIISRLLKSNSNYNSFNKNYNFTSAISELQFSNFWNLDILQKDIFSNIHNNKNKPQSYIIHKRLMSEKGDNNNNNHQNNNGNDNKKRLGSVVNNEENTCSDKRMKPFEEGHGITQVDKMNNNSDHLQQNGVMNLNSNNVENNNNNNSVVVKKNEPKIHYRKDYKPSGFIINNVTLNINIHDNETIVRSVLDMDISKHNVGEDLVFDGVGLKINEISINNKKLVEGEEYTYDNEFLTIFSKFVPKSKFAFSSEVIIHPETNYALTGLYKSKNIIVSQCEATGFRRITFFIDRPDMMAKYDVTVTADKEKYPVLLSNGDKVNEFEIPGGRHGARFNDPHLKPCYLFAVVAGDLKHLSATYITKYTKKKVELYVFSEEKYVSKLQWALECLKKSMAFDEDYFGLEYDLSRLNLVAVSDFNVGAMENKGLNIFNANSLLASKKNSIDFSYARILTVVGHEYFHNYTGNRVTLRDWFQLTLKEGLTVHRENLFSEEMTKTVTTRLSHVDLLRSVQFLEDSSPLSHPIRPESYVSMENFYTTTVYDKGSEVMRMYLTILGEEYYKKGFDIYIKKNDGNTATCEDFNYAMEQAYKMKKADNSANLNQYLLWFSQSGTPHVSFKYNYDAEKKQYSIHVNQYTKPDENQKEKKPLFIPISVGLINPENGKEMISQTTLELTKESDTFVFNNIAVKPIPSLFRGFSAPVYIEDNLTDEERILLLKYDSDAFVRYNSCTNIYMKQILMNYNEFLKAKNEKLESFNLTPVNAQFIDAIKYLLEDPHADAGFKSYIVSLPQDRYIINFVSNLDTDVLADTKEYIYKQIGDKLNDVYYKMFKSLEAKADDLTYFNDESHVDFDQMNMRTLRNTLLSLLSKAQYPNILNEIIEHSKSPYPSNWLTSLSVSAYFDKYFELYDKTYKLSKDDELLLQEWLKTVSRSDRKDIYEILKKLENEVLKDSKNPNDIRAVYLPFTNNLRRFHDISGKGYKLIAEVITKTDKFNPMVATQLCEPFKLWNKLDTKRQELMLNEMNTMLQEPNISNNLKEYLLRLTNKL
# [4] = target: Induced myeloid leukemia cell differentiation protein Mcl-1 (Homo sapiens, UniProt Q07820); format: functional
# [5] = target: T2, Small ubiquitin-related modifier 1 (Homo sapiens, UniProt P63165); test: SUMO1 protein interaction blockers, potency – biochemical, fluorescence polarization, uHTS hits, dose response (AID 624382); format: functional; conditions: read-out: IC50_Mean
# [6] = target: Transitional endoplasmic reticulum ATPase (Homo sapiens, UniProt P55072, C522A); test: C522A mutant p97 ATPase inhibitors, dose response, counter-screen for p97 inhibitor project, biochemical, luminescence (AID 1544)
# [7] = target: T3, Zinc finger protein mex-5 (Caenorhabditis elegans, UniProt Q9XUB2); test: potency of MEX-5 RNA-binding blockers – biochemical, C. elegans, fluorescence polarization, dose response (AID 1960)
# T3 sequence (Q9XUB2 whole entry): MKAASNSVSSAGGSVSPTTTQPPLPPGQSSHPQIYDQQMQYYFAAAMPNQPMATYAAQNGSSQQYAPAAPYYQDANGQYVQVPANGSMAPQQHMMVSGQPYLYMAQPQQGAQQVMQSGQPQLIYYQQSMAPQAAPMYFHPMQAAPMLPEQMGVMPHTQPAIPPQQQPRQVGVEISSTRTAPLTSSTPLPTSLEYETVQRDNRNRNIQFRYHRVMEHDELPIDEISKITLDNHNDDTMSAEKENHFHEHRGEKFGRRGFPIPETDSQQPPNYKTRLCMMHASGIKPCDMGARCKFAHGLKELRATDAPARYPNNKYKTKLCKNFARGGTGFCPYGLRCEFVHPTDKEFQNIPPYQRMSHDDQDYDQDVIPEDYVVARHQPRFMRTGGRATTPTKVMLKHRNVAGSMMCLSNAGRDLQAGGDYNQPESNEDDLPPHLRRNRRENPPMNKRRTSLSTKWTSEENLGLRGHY
# [8] = target: T4, RNA-editing ligase 1, mitochondrial (Trypanosoma brucei brucei, UniProt P86926); test: inhibition of trypanosome RNA editing ligase – biochemical, fluorescence, Trypanosoma brucei, dose response (AID 1117295); format: functional
# T4 sequence (P86926 whole entry): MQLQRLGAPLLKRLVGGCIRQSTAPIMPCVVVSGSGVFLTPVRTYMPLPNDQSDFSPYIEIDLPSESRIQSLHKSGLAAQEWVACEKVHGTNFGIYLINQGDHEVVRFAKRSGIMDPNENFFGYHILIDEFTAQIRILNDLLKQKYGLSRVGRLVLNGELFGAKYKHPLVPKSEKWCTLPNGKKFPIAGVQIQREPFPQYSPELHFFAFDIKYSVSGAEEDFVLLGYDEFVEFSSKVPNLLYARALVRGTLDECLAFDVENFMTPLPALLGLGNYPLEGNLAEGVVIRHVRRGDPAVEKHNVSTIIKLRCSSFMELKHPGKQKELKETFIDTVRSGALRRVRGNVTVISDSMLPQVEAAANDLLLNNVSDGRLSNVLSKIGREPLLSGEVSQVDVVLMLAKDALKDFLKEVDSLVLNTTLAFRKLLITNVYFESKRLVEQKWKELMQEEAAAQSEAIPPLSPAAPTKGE
# [9] = target: 26S proteasome non-ATPase regulatory subunit 14 (Homo sapiens, UniProt O00487); test: inhibition of proteasome subunit RPN11 – biochemical, fluorescence polarization, uHTS hits, confirmation (AID 602368); format: functional
# [10] = target: Transitional endoplasmic reticulum ATPase (Homo sapiens, UniProt P55072); test: p97 ATPase inhibitors, dose response, biochemical (AID 1534)
# [11] = target: T5, Bifunctional protein GlmU (Mycobacterium tuberculosis, UniProt P9WMN3); test: Inhibitors of Mycobacterial Glucosamine-1-phosphate acetyl transferase (GlmU). Secondary screen.; set-up: species or system Mycobacterium tuberculosis H37Rv
# T5 sequence (P9WMN3 whole entry): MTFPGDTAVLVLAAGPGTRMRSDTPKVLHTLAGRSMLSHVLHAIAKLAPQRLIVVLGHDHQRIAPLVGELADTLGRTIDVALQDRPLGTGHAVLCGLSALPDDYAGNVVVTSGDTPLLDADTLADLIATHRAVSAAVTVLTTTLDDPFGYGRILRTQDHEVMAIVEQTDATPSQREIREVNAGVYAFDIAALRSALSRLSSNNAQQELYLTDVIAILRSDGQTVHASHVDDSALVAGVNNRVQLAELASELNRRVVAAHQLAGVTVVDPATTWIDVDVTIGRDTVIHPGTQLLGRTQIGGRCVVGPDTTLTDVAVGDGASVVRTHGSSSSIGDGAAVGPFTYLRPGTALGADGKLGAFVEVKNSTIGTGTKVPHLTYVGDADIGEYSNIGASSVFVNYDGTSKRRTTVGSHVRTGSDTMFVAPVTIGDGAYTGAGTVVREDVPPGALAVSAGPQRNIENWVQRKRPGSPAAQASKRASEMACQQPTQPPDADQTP
# [12] = target: 72 kDa type IV collagenase (Homo sapiens, UniProt P08253); test: Dose Response validation of uHTS RPN11 inhibitor hits using a MMP-2 Fluorescence assay.; format: functional
# [13] = target: T2, Small ubiquitin-related modifier 1; test: SUMO1 protein-protein binding blockers, potency – biochemical, FRET, dose response (AID 624383); format: functional; conditions: read-out: IC50_Mean
# [14] = target: Albumin (Bos taurus, UniProt P02769); test: Counterscreen for inhibitors of T-cell receptor (TCR)-CD3 interaction: Fluorescence-based biochemical high throughput dose response assay to identify inhibitors of T-cell receptor (TCR)-CD3 interaction using a TAMRA-labeled BSA probe.; format: functional
# [15] = target: T6, RNA-binding protein pos-1 (Caenorhabditis elegans, UniProt G5EF15); test: disruptors of C. elegans POS-1 RNA interaction – biochemical, fluorescence polarization, dose response (AID 1964);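 also: purified POS-1 fused to maltose binding protein made in E. coli; potency of compounds blocking POS-1 binding to fluorescent RNA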
# T6 sequence (G5EF15 whole entry): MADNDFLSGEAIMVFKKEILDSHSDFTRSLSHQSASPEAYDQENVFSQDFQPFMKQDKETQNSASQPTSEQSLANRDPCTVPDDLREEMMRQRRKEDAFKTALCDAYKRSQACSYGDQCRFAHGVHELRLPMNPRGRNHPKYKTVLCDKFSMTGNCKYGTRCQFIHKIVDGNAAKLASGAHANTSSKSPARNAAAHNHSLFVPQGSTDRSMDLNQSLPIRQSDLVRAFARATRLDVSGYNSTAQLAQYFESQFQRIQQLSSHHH
# [16] = target: T7, CAAX prenyl protease 2 (Saccharomyces cerevisiae S288c, UniProt Q03530); format: biochemical
# T7 sequence (Q03530 whole entry): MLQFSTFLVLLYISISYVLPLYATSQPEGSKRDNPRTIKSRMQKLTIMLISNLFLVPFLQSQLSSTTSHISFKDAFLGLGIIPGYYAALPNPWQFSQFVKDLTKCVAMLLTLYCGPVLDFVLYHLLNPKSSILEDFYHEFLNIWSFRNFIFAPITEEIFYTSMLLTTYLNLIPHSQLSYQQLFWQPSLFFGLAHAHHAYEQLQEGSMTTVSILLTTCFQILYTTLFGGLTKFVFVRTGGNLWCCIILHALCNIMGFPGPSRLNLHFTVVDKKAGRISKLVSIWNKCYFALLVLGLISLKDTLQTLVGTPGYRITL
# [17] = target: Trypsin (Sus scrofa, UniProt P00761); test: trypsin protease activity blockade – biochemical, quenched peptide fluorescence, cherry-pick, selectivity assay for Rce1 protease inhibitor project, dose response (AID 488789)
# [18] = target: Beta-galactosidase (Escherichia coli, UniProt Q8VNN2); test: detection-enzyme interference by beta-gal modulators – biochemical, E. coli enzyme, set 3, artefact control for CCR6 antagonist project, dose response (AID 504712); format: functional
# [19] = viability loss in THP-1 monocytes – THP-1 cells, cytotoxicity control for Vif-APOBEC3G degradation inhibitor project, dose response (AID 1117359); format: functional; conditions: THP-1
# [20] = target: Glucose-6-phosphate 1-dehydrogenase (Homo sapiens, UniProt P11413); test: inhibition of Homo sapiens G6PD, dose series – biochemical, fluorescence, selectivity assay for P. falciparum G6PD inhibitor project, dose response (AID 504792); format: functional
# [21] = target: T8, Hexokinase HKDC1 (Homo sapiens, UniProt Q2TB90); test: inhibition of HKDC1 glucose phosphorylation – biochemical, W721R variant, dose response (AID 504729); format: functional
# T8 sequence (Q2TB90 whole entry): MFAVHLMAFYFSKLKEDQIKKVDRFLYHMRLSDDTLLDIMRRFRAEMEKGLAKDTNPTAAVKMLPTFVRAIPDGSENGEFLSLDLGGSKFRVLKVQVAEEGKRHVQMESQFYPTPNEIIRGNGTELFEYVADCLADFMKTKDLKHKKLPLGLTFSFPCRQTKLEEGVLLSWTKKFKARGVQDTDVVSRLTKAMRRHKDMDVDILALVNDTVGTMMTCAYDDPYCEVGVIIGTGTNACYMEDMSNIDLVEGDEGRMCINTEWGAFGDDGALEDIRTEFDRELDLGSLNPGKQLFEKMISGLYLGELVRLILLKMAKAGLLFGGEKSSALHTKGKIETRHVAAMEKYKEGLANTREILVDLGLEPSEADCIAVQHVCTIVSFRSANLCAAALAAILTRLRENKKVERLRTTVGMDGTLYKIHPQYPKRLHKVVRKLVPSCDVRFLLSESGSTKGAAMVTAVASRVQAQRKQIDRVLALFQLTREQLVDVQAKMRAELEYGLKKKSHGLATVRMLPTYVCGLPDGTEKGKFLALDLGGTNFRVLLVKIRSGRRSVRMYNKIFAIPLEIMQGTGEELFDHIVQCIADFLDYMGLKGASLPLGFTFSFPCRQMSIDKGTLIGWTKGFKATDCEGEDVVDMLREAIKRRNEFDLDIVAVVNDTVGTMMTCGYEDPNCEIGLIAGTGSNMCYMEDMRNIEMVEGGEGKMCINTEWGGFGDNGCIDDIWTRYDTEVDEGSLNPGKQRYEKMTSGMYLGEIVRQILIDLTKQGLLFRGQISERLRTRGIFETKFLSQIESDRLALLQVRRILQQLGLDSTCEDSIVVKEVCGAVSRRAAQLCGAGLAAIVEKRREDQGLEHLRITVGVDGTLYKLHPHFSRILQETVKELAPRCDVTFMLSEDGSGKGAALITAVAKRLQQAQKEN
# [22] = target: Genome polyprotein (dengue virus type 2, UniProt P29990); test: flavivirus cap methylation enzyme inhibition – biochemical, confirmation dose response, primary screen (AID 588689); format: functional
# T2 sequence (P63165 whole entry): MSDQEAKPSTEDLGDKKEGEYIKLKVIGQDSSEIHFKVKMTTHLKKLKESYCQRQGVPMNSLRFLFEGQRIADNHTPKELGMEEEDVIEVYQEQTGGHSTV
# Induced myeloid leukemia cell differentiation protein Mcl-1, sequence (Q07820 whole entry): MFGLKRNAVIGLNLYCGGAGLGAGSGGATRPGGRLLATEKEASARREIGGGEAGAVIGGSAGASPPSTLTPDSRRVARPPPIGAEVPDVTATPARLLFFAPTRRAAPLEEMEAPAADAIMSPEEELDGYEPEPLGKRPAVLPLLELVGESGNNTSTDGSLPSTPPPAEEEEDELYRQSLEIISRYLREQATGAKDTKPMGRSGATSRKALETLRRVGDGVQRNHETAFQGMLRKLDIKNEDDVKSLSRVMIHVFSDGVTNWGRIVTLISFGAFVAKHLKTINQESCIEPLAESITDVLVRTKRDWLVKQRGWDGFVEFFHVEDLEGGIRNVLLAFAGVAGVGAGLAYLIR
# Albumin, sequence (P02769 whole entry, the tested form may be a part): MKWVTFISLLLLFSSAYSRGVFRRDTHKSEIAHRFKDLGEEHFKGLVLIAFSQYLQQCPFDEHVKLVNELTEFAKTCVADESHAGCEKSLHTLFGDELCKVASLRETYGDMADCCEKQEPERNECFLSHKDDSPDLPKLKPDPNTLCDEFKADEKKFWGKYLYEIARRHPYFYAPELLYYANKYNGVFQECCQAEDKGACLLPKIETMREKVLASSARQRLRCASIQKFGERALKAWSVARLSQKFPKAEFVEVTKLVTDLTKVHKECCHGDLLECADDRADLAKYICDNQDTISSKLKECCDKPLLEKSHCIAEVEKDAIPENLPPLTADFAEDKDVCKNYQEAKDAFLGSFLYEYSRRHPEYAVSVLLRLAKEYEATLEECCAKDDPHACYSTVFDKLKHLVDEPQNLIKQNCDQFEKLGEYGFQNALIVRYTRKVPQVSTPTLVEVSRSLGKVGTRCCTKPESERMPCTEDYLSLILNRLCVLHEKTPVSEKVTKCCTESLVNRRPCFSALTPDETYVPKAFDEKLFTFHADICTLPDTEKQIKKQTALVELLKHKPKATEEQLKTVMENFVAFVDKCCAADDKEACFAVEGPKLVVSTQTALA
# Transitional endoplasmic reticulum ATPase (Homo sapiens, UniProt P55072, C522A), sequence (P55072 2-806 C522A limits assumed): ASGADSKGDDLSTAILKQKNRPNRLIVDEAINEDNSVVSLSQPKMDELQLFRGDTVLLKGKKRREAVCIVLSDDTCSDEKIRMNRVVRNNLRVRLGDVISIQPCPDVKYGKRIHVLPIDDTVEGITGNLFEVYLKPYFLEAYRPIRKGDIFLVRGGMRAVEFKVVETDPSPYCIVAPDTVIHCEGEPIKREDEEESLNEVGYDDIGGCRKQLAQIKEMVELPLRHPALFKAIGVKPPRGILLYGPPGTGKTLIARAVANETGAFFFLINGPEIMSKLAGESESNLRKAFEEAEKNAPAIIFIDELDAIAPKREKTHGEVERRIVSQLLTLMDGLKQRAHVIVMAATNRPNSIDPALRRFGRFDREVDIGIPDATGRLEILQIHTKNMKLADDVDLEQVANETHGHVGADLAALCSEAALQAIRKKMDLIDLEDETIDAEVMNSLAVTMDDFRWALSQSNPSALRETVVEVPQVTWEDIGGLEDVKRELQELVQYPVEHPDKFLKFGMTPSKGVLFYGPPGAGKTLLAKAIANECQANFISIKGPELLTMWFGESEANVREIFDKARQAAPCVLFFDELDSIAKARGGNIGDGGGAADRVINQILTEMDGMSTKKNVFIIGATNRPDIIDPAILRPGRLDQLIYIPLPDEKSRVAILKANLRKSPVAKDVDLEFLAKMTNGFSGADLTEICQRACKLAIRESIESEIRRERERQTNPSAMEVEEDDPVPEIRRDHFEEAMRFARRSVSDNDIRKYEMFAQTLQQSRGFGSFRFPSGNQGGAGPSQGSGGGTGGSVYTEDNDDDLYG
# Beta-galactosidase, sequence (Q8VNN2 whole entry): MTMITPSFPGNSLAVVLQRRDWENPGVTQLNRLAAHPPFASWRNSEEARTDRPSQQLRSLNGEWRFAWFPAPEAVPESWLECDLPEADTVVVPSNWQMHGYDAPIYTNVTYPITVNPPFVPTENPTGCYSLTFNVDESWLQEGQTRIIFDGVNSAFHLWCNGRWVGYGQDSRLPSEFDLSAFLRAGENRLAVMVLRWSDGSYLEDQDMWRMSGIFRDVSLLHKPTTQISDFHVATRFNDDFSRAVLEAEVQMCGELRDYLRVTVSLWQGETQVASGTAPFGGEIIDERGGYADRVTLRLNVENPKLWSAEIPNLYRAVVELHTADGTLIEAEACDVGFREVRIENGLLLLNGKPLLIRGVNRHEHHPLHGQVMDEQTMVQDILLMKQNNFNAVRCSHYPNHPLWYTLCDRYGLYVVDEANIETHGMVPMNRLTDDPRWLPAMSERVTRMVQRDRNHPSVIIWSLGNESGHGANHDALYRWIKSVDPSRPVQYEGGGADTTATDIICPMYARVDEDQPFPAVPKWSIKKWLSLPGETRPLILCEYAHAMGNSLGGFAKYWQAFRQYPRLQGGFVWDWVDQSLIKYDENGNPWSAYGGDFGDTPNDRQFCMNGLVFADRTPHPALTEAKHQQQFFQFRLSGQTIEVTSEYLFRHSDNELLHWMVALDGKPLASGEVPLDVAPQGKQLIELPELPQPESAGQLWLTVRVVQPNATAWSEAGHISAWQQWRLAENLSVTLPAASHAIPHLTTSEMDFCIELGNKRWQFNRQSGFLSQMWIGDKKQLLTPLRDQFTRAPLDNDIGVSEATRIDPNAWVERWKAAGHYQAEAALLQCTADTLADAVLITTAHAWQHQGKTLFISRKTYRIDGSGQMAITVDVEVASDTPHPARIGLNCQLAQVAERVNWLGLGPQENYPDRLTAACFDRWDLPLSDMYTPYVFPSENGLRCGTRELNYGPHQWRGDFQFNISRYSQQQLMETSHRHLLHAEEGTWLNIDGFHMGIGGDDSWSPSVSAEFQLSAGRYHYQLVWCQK
# Transitional endoplasmic reticulum ATPase (Homo sapiens, UniProt P55072), sequence (P55072 whole entry): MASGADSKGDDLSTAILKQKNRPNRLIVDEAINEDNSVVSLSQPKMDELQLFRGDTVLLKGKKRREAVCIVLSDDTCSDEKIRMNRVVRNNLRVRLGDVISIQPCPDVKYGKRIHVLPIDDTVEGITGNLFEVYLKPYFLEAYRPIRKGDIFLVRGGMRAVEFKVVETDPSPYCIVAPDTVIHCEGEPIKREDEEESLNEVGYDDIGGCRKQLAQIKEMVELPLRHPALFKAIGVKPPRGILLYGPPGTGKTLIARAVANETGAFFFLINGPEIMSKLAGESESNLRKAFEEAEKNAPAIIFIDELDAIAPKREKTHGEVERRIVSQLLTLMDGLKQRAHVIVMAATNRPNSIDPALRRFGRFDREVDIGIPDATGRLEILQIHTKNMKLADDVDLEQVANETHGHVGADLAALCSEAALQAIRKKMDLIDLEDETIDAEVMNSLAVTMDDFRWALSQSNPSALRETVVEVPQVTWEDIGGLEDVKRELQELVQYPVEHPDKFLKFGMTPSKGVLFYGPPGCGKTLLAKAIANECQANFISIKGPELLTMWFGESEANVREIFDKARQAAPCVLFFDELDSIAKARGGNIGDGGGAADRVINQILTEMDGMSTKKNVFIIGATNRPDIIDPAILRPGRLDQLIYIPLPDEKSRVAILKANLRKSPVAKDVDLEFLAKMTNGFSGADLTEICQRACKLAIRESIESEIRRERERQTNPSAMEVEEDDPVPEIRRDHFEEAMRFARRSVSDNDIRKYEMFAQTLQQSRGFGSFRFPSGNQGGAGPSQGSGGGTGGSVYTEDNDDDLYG
# Trypsin, sequence (P00761 whole entry): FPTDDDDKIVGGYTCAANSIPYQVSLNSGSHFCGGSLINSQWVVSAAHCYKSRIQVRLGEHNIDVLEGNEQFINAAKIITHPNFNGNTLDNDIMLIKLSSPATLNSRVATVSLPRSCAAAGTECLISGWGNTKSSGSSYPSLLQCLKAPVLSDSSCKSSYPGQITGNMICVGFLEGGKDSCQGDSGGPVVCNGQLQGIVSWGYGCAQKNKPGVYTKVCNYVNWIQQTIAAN
# Glucose-6-phosphate 1-dehydrogenase, sequence (P11413 whole entry): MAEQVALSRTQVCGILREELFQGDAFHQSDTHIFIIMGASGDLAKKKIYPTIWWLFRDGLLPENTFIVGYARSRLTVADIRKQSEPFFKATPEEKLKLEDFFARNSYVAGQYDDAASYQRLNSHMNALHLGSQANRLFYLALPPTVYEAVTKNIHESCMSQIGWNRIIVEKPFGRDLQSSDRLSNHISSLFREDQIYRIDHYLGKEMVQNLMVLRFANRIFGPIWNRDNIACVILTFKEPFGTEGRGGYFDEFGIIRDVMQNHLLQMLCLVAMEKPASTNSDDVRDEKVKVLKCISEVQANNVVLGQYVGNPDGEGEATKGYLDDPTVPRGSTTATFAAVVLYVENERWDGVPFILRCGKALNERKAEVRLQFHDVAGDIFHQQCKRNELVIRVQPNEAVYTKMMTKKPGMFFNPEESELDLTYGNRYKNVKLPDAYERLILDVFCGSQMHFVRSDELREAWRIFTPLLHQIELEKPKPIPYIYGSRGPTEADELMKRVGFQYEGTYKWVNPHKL
# 26S proteasome non-ATPase regulatory subunit 14, sequence (O00487 whole entry): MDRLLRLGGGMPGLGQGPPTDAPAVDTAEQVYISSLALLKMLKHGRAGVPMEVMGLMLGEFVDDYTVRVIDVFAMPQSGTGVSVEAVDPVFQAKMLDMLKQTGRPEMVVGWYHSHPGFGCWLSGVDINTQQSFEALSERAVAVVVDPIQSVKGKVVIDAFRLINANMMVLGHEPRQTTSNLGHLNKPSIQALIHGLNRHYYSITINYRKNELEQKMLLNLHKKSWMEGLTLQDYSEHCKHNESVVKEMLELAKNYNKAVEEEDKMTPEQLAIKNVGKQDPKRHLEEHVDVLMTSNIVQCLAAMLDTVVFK
smiles,measurement,setting,value
CCCOc1cc(C)c(S(=O)(=O)n2ccc(C)n2)cc1C,EC50,[1],5.47 µM (active)
Cc1n[nH]c(S/C(=C\c2ccc(-c3ccc(C(=O)O)c(Cl)c3)o2)C(=O)O)n1,IC50,[2],9.79 µM (active)
same,IC50,[3],11.3 µM (active)
same,IC50,[4],2.35 µM (active)
same,IC50,[5],> 66.6 µM (inactive)
same,IC50,[6],> 50 µM (not active)
same,EC50,[7],1.38 µM (active)
same,IC50,[8],22.9 µM (inactive)
same,IC50,[9],9.04 µM (active)
same,IC50,[10],> 50 µM (not active)
same,IC50,[11],61.9 µM (active)
same,IC50,[12],> 100 µM (inactive)
same,IC50,[13],13.1 µM (active)
same,IC50,[14],> 94.1 µM (inactive)
same,EC50,[15],1.76 µM (active)
Cc1cc(-c2ccccc2)n2nc(C)c(C#N)c2n1,AC50,[16],15.5 µM (active)
same,AC50,[17],3.3 µM (active)
COC1=C(OC)C(=O)C(Sc2ccc3ccccc3c2)=CC1=O,IC50,[18],> 66.6 µM (inactive)
same,CC50,[19],> 40 µM (active)
same,IC50,[20],18.7 µM (active)
same,IC50,[21],3.33 µM (active)
same,IC50,[22],5.09 µM (active)
